Source: the SangsterLogP compilation

Row | logP | Compound
1 | 3.96 | CC(C)c1cccc(C(C)C)c1NC(=O)CC(=O)C(c1ccccc1)c1ccccc1
2 | 4.2 | CC(C)c1cccc(C(C)C)c1NC(=O)CC(=O)CCCCCCCCCCO
3 | 6.67 | CCCCCCCCCCCC(=O)C(C)(C)C(=O)N(C)c1c(OC)cc(OC)cc1OC
4 | 3.93 | CC(C)c1cccc(C(C)C)c1NC(=O)CC(CC(c1ccccc1)c1ccccc1)=NO

Second part, the compound before the results:

Row | Compound | logP
5 | CC(C)c1cccc(C(C)C)c1NC(=O)CC(=O)c1ccccc1 | 2.87
6 | CCCCCCCC1CC(C(=O)Nc2c(C(C)C)cccc2C(C)C)C(=O)O1 (stereo not given) | 4.72
7 | CC(C)c1cccc(C(C)C)c1NC(=O)CC(=O)C1(c2ccccc2)CCCC1 | 4.55
8 | CC(C)c1cccc(C(C)C)c1NC(=O)CC(O)CC(c1ccccc1)c1ccccc1 (stereo not given) | 4.01
9 | CCCCCCCCCCCC(=O)C(C)(C)C(=O)Nc1c(OC)cc(OC)cc1OC | 4.88
10 | CCCCCCCCCCCC(=O)CC(=O)Nc1c(OC)cc(OC)cc1OC | 5.02
